Measured values: patent US11377469B2, “CD73 inhibitors” (ORIC Pharmaceuticals, Inc., priority 2017, dated 2022)

Target: CD73 (Homo sapiens (Human), UniProt P21589)
Experiment: Biochemical Assay (CD73 inhibition, AMP hydrolysis, Malachite Green readout)
Details: CD73 0.3208 nM, AMP 15 μM, Tris-HCl pH 7.4, Malachite Green absorbance
Protocol: Example A1: Biochemical Assay
Assay Reaction Conditions
• Assay Volume: 70 μl • Reaction Volume: 50 μl • CD73: 0.3208 nM • AMP: 15 μM • Assay Buffer: 2 5 mM Tris-HCL, pH 7.4, 0.01% Brij-35, 0.01% BSA, 5 mM MgCl2 Assay Procedure:
Made dose titration of testing compounds in assay buffer, 10 points ½ log titrations in duplicates starting at 100 μM.
Added 25 μl of CD73 to each well for a final concentration of 320 pM.
Incubated at RT for 15 min.
Added 25 μl of AMP to each well for a final concentration of 15 μM.
Incubated at RT for 10 min.
Added 10 μl of Malachite Green Reagent A, incubate at RT for 10 min.
Added 10 μl of Malachite Green Reagent B, incubate at RT for 45 min. […]
The ability of the compounds disclosed herein to inhibit CD73 activity was quantified and the respective IC50 values were determined. Table 1 provides the biochemical IC50 values of compounds disclosed herein.

Chain of CD73 (P21589 27-574): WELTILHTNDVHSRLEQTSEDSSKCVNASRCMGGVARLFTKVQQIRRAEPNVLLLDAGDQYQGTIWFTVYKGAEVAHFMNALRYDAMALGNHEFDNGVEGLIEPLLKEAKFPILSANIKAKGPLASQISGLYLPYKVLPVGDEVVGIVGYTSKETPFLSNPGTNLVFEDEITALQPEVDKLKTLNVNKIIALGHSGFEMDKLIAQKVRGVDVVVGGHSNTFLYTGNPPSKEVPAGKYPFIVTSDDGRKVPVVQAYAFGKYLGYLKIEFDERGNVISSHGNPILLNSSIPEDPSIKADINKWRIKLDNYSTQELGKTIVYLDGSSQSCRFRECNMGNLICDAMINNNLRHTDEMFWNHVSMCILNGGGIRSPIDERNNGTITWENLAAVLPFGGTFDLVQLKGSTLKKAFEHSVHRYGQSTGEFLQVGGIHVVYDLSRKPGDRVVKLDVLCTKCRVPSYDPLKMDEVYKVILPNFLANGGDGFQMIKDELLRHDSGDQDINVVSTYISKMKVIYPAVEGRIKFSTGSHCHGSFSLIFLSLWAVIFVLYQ

Row | SMILES | IC50 [µM]
1 | CC(=O)N(c1nc(Cl)nc2c1cnn2[C@@H]1O[C@H](COCP(=O)(O)O)[C@@H](O)[C@H]1O)C1CCCC1 [Example 99, ((((2R,3S,4R,5R)-5-(6-Chloro-4-(N-cyclopentylacetamido)-1H-pyrazolo[3,4-d]pyrimidin-1-yl)-3,4-dihydroxytetrahydrofuran-2-yl)methoxy)methyl)phosphonic acid] | ≤ 0.5
2 | O=P(O)(O)CS(=O)(=O)C[C@H]1O[C@@H](n2nnc3c(NC4CCC4)nc(Cl)nc32)[C@H](O)[C@@H]1O [Example 110, (((((2S,3S,4R,5R)-5-(5-chloro-7-(cyclobutylamino)-3H-[1,2,3]triazolo[4,5-d]pyrimidin-3-yl)-3,4-dihydroxytetrahydrofuran-2-yl)methyl)sulfonyl)methyl)phosphonic acid] | ≤ 0.5
3 | O=P(O)(O)COC[C@H]1O[C@@H](n2nnc3c(NCC4CC4)nc(Cl)nc32)[C@H](O)[C@@H]1O [Example 16, ((((2R,3S,4R,5R)-5-(5-Chloro-7-((cyclopropylmethyl)amino)-3H-[1,2,3]triazolo[4,5-d]pyrimidin-3-yl)-3,4-dihydroxytetrahydrofuran-2-yl)methoxy)methyl)phosphonic acid] | ≤ 0.5
4 | O=P(O)(O)COC[C@H]1O[C@@H](n2nnc3c(N[C@H]4CCc5ccccc54)nc(Cl)nc32)[C@H](O)[C@@H]1O [Example 12, ((((2R,3S,4R,5R)-5-(5-chloro-7-(((S)-2,3-dihydro-1H-inden-1-yl)amino)-3H-[1,2,3]triazolo[4,5-d]pyrimidin-3-yl)-3,4-dihydroxytetrahydrofuran-2-yl)methoxy)methyl)phosphonic acid] | ≤ 0.5
5 | O=C(CP(=O)(O)O)N(Cc1ccccc1)C[C@H]1O[C@@H](n2ncc3c(NCc4ccccc4Cl)nc(Cl)nc32)[C@H](O)[C@@H]1O [Example 28, (2-(benzyl(((2R,3S,4R,5R)-5-(6-chloro-4-((2-chlorobenzyl)amino)-1H-pyrazolo[3,4-d]pyrimidin-1-yl)-3,4-dihydroxytetrahydrofuran-2-yl)methyl)amino)-2-oxoethyl)phosphonic acid] | > 1
6 | O=P(O)(O)CS(=O)(=O)C[C@H]1O[C@@H](n2nnc3c(NC4CCCC4)nc(Cl)nc32)[C@H](O)[C@@H]1O [Example 108, (((((2S,3S,4R,5R)-5-(5-chloro-7-(cyclopentylamino)-3H-[1,2,3]triazolo[4,5-d]pyrimidin-3-yl)-3,4-dihydroxytetrahydrofuran-2-yl)methyl)sulfonyl)methyl)phosphonic acid] | ≤ 0.5
7 | CC1CCCC1Nc1nc(Cl)nc2c1cnn2[C@@H]1O[C@H](CS(=O)(=O)CP(=O)(O)O)[C@@H](O)[C@H]1O (stereo partly drawn) [Example 128, (((((2S,3S,4R,5R)-5-(6-chloro-4-((2-methylcyclopentyl)amino)-1H-pyrazolo[3,4-d]pyrimidin-1-yl)-3,4-dihydroxytetrahydrofuran-2-yl)methyl)sulfonyl)methyl)phosphonic acid] | ≤ 0.5
8 | CC(C)CN(C[C@H]1O[C@@H](n2ncc3c(NCc4ccccc4Cl)nc(Cl)nc32)[C@H](O)[C@@H]1O)C(=O)CP(=O)(O)O [Example 20, (2-((((2R,3S,4R,5R)-5-(6-Chloro-4-((2-chlorobenzyl)amino)-1H-pyrazolo[3,4-d]pyrimidin-1-yl)-3,4-dihydroxytetrahydrofuran-2-yl)methyl)(isobutyl)amino)-2-oxoethyl)phosphonic acid] | > 1
9 | O=P(O)(O)CCC[C@H]1O[C@@H](n2ncc3c(NC4CCCC4)nc(Cl)nc32)[C@H](O)[C@@H]1O [Example 101, (3-((2R,3S,4R,5R)-5-(6-Chloro-4-(cyclopentylamino)-1H-pyrazolo[3,4-d]pyrimidin-1-yl)-3,4-dihydroxytetrahydrofuran-2-yl)propyl)phosphonic acid] | 0.5 to 1

Now from value to molecule:

Row | IC50 [µM] | SMILES
10 | > 1 | CNc1nc(NCc2cccc(Cl)c2)c2cnn([C@@H]3O[C@H](COCP(=O)(O)O)[C@@H](O)[C@H]3O)c2n1 [Example 56, ((((2R,3S,4R,5R)-5-(4-((3-chlorobenzyl)amino)-6-(methylamino)-1H-pyrazolo[3,4-d]pyrimidin-1-yl)-3,4-dihydroxytetrahydrofuran-2-yl)methoxy)methyl)phosphonic acid]
11 | ≤ 0.5 | O=P(O)(O)COC[C@H]1O[C@@H](n2ncc3c(NC4CCOCC4)nc(Cl)nc32)[C@H](O)[C@@H]1O [Example 73, ((((2R,3S,4R,5R)-5-(6-chloro-4-((tetrahydro-2H-pyran-4-yl)amino)-1H-pyrazolo[3,4-d]pyrimidin-1-yl)-3,4-dihydroxytetrahydrofuran-2-yl)methoxy)methyl)phosphonic acid]
12 | ≤ 0.5 | C[C@H](Nc1nc(Cl)nc2c1cnn2[C@@H]1O[C@H](COCP(=O)(O)O)[C@@H](O)[C@H]1O)c1ccccc1Cl [Example 33, ((((2R,3S,4R,5R)-5-(6-chloro-4-(((S)-1-(2-chlorophenyl)ethyl)amino)-1H-pyrazolo[3,4-d]pyrimidin-1-yl)-3,4-dihydroxytetrahydrofuran-2-yl)methoxy)methyl)phosphonic acid]
13 | 0.5 to 1 | C[C@@]1(O)[C@@H](COCP(=O)(O)O)O[C@@H](n2ncc3c(NCc4ccccc4Cl)nc(Cl)nc32)[C@@H]1O [Example 19, ((((2R,3S,4R,5R)-5-(6-Chloro-4-((2-chlorobenzyl)amino)-1H-pyrazolo[3,4-d]pyrimidin-1-yl)-3,4-dihydroxy-3-methyltetrahydrofuran-2-yl)methoxy)methyl)phosphonic acid]
14 | ≤ 0.5 | O=P(O)(O)COC[C@H]1O[C@@H](n2ncc3c(NC4CCC4)nc(Cl)nc32)[C@H](O)[C@@H]1O [Example 79, ((((2R,3S,4R,5R)-5-(6-chloro-4-(cyclobutylamino)-1H-pyrazolo[3,4-d]pyrimidin-1-yl)-3,4-dihydroxytetrahydrofuran-2-yl)methoxy)methyl)phosphonic acid]
15 | ≤ 0.5 | O=P(O)(O)COC[C@H]1O[C@@H](n2ncc3c(NCc4cccc(C(F)(F)F)c4)nc(Cl)nc32)[C@H](O)[C@@H]1O [Example 32, ((((2R,3S,4R,5R)-5-(6-chloro-4-((3-(trifluoromethyl)benzyl)amino)-1H-pyrazolo[3,4-d]pyrimidin-1-yl)-3,4-dihydroxytetrahydrofuran-2-yl)methoxy)methyl)phosphonic acid]
16 | 0.5 to 1 | COc1nc(NCC2CC2)c2cnn([C@@H]3O[C@H](COCP(=O)(O)O)[C@@H](O)[C@H]3O)c2n1 [Example 82, ((((2R,3S,4R,5R)-5-(4-((cyclopropylmethyl)amino)-6-methoxy-1H-pyrazolo[3,4-d]pyrimidin-1-yl)-3,4-dihydroxytetrahydrofuran-2-yl)methoxy)methyl)phosphonic acid]
17 | ≤ 0.5 | O=P(O)(O)COC[C@H]1O[C@@H](n2ncc3c(NCc4ccccc4Cl)nc(Cl)nc32)[C@H](O)[C@@H]1O [Example 10, ((((2R,3S,4R,5R)-5-(6-chloro-4-((2-chlorobenzyl)amino)-1H-pyrazolo[3,4-d]pyrimidin-1-yl)-3,4-dihydroxytetrahydrofuran-2-yl)methoxy)methyl)phosphonic acid]
18 | > 1 | C[C@H](OCP(=O)(O)O)[C@H]1O[C@@H](n2ncc3c(NCc4ccccc4Cl)nc(Cl)nc32)[C@H](O)[C@@H]1O [Example 50, (((S)-1-((2S,3S,4R,5R)-5-(6-chloro-4-((2-chlorobenzyl)amino)-1H-pyrazolo[3,4-d]pyrimidin-1-yl)-3,4-dihydroxytetrahydrofuran-2-yl)ethoxy)methyl)phosphonic acid]
